# Experimental data reported in patent US11420975B2, “Substituted imidazo[1,5-a]pyrazines as Bruton's tyrosine kinase inhibitors” (TRANSTHERA SCIENCES (NANJING), INC., priority 2018, dated 2022).
# Tests used:
# OCI-LY10 xenograft tumor = OCI-LY10 xenograft tumor model; assay type: in vivo; settings: intragastric 25 mg/kg once/day, day 28
# Procedure: (§1) CB17/SCID female mice with serious immune deficiency were purchased from Beijing Vital River Laboratory Animal Technology Co., Ltd. and bred in SPF animal houses. Human OCI-LY10 cells (Shanghai Junrui-UFBN0102) were cultured in an RPMI 1640 culture medium containing 10% fetal bovine serum, 100 U/mL penicillin and 100 μg/mL streptomycin through monolayer culture in vitro in an incubator (37° C., 5% C02). Routine treatment was performed twice a week for passaging. At a cell saturation of 80%-90% and a required number, the cells were harvested and counted. 0.2 mL (1×10^7) of OCI-LY10 cells (together with matrigel at a volume ratio of 1:1) were subcutaneously inoculated into the right back of each mouse, and the tumor size could be measured about one week after inoculation. Tumor size was measured using a vernier caliper and tumor volume was calculated using the following formula: tumor volume=(length×width^2)/2.
# OCI-LY10 = assay: In vitro tumor cell proliferation inhibition, OCI-LY10 (CellTiter-Glo); assay type: cell-based; settings: Homo sapiens; OCI-LY10 cells, 72 h
# Procedure: (§2) (1) Method • The tumor cell line (TMD-8/OCY-LY10) was suspended in RPMI1640+FBS10% and cultured in an incubator (37° C., 5% CO2). Cells were passaged periodically, and cells at logarithmic growth phase were collected for plating. • Cell staining was performed with trypan blue and viable cells were counted. • Cell concentration was adjusted to 7000 cells/well with medium. • 90 μL of cell suspension was added to a 96-well plate and cell-free culture medium was added to the blank control wells. • Cells in the 96-well plate were incubated overnight in an incubator (37° C., 5% CO2, 100% relative humidity). • Preparation of 400× compound storage plates: test compounds and reference drug were each dissolved in DMSO and 3× diluted from the highest concentration (400 μM) to the lowest concentration (0.61 μM). • Preparation of 10× compound working solutions: 78 μL of cell culture medium was added to a V-bottom 96-well plate, and 2 μL of the compound was pipetted from the 400× compound storage plate into the 96-well plate. Vehicle control wells and blank control wells were added with 2 μL of DMSO. […] Inhibition rates of compounds at different concentrations were calculated in Excel, followed by plotting the inhibition curves and calculating IC50 values with GraphPad Prism.
# TMD-8 xenograft tumor = TMD-8 xenograft tumor model; assay type: in vivo; settings: intragastric 25 mg/kg once/day
# Procedure: as §1, with “TMD-8” for “OCI-LY10”, “Junrui-UFBN1682)” for “Junrui-UFBN0102)”
# TMD-8 = assay: In vitro tumor cell proliferation inhibition, TMD-8 (CellTiter-Glo); assay type: cell-based; settings: Homo sapiens, TMD8; TMD-8 cells, 72 h
# Procedure: as §2
compound,measurement,setting,value
"C=CC(=O)N1CCC[C@@H](n2nc(-c3ccc(Oc4ccccc4)cc3)c3c(N)ncnc32)C1 [Ibrutinib, ibrutinib, reference compound]",TGI,OCI-LY10 xenograft tumor,94%
same,IC50,OCI-LY10,1.7 nM
same,TGI,TMD-8 xenograft tumor,90%
same,IC50,TMD-8,0.4 nM
